Data on 5 compounds can be found in patent US5187174A, “6'-deoxy-6'-halo-neplanocin A and its production” (Asahi Kasei Kogyo Kabushiki Kaisha, priority 1989, dated 1993).

Values after ≈ are worked out from the molar mass of the structure shown.

One series concerns L5178Y cells. As to the kind of experiment: Growth inhibition activity against L5178Y cells. It is filed as cell-based. Particulars: Mus musculus, 48 hours, 37° C. The protocol:
1. Growth inhibition activity against L5178Y cells:
A solution of each test compound is prepared by dissolving or suspending the compound in RRMI 1640 medium containing 10% bovine serum by ultrasonication. A cell suspension of L5178Y cells, 1.1×10^4 cells/ml, each suspension having a volume of 1.8 ml, is added to each test tube. A solution (0.2 ml) of the test compound hereinabove is added thereto and the medium is tightly sealed and incubated at 37° C. for 48 hours. After incubation, the number of cells is measured using a Coulter counter and the growth ratio of the cells is determined.

Series [1] is described as follows: Resistance to adenosine deaminase. It counts as in vitro ADME, calf. As to conditions: bovine, pH 7.2, 25° C., read-out: Remaining Amount (%); for remaining at 0.5 h, 500 µM: 30 min. The protocol:
A solution 0.5 mM of each test sample is prepared by dissolving the test sample in 0.05M Tris-HCl buffer (pH 7.2). Adenosine deaminase (calf intestine, 400 U/ml glycerin, Boehringer 102091) is diluted ten times with 0.05M Tris-HCl buffer (pH 7.2) to prepare an adenosine deaminase solution.
0.5 ml of each sample solution is mixed with 10 μl of adenosine deaminase solution. The mixtures are allowed to stand in a water bath at 25° C., and 4 μl samples thereof are pipetted off after 1, 10, 20 and 30 minutes. The remaining sample is measured by HPLC under the following conditions:
Column: Licrosorb RP-18-5
Elution solvent: Control; 15% methanol
Elution speed: 1.0 ml/min.

The subject of another series is cells. As to conditions: in words; Ref. 1; cited from earlier work.
For another series, the system named is adenosine deaminase. As to conditions: in words; thought to occur, Ref. 1; cited from earlier work.

In the series on L5178Y cells, `Nc1ncnc2c1ncn2[C@@H]1C=C(CO)[C@@H](O)[C@H]1O` [Neplanocin A] gave an IC50 of 0.2 µg/mL (≈ 0.76 µM). Further, in series [1], the fraction remaining at 10 min, 500 µM was found to be 6%; the share remaining at 20 min, 500 µM was 0.4%; the amount remaining at 0.5 h, 500 µM stood at 0%. In addition, the “cytotoxic activity in vitro” value in the series with cells is “has cytotoxic activity in vitro”. In the series on adenosine deaminase, the “conversion by adenosine deaminase in vivo” value is listed as “rapid conversion to an inert deamination-type compound (neplanocin D)”.

`Nc1ncnc2c1ncn2C1C=C(CCl)C(O)C1O` (stereo not shown) [Compound (1) X = Cl, 6'-deoxy-6'-chloroneplanocin A] displayed an IC50 in the series with L5178Y cells of 0.3 µg/mL (≈ 1.06 µM). For the same compound, in series [1], the amount remaining at 10 min, 500 µM is 101%; the share remaining at 20 min, 500 µM was 99%; the fraction remaining at 0.5 h, 500 µM came out at 102%.

The compound `Nc1ncnc2c1ncn2C1C=C(CBr)C(O)C1O` (stereo not shown) [Compound (1) X = Br, 6'-deoxy-6'-bromoneplanocin A] yielded an IC50 in the series on L5178Y cells of 0.2 µg/mL (≈ 0.613 µM). Also, in series [1], the fraction remaining at 10 min, 500 µM was found to be 98%; the amount remaining at 20 min, 500 µM amounted to 97%; the amount remaining at 0.5 h, 500 µM came out at 97%.

Take `Nc1ncnc2c1ncn2C1C=C(CI)C(O)C1O` (stereo not shown) [Compound (1) X = I, 6'-deoxy-6'-iodoneplanocin A]: it took 0.4 µg/mL (≈ 1.07 µM) to reach half-maximal inhibition in the series on L5178Y cells (IC50). Moreover, in series [1], the share remaining at 10 min, 500 µM came to 97%; the fraction remaining at 20 min, 500 µM was 96%; the share remaining at 0.5 h, 500 µM came out at 96%.

Turning to `Nc1ncnc2c1ncn2C1C=C(CF)C(O)C1O` (stereo not shown) [Compound (1) X = F, 6'-deoxy-6'-fluoroneplanocin A], the IC50 in the series on L5178Y cells is 1.1 µg/mL (≈ 4.15 µM). Also, in series [1], the amount remaining at 10 min, 500 µM came to 99%; the amount remaining at 20 min, 500 µM came out at 98%; the amount remaining at 0.5 h, 500 µM is 98%.

The term IC50 denotes the concentration that inhibits the measured activity by half.
